According to patent US20140336182A1, “Aurora Kinase Modulators and Method of Use” (Amgen Inc., priority 2013, published 2014):
Read-outs that look alike come from different tables or passages of the source.

System: HeLa cells
Experiment: HeLa cell 24 hr ploidy assay (DNA content)
Assay type: cell-based
Conditions: 4N ploidy, average, read-out: 24h_4NPloidy EC50_IP (uM Avg)
Experimental: HeLa cell 24 hr ploidy assay protocol
The purpose of this assay is to evaluate the ability of selected individual compounds to induce Deoxyribonucleic acid (DNA) content (ploidy) in cells through failed cell division. Cell cycle analysis is a rapid and efficient way to evaluate the status of DNA content (ploidy) of a given cell. HeLa cells (1×10^4 HeLa cells/well) in 100 ul of media (MEM+10% FBS) were plated in 96-well plates (Packard View) and cultured for 24 hrs at 37° C. maintained in a 5% CO2 atmosphere. […] The compounds were serially diluted in DMSO (0.25% final concentration). The cells were fixed (3.7% Formaldehyde and 1% glutaraldehyde) and permeabilized (1×PBS with 1% BSA and 0.2% Triton X-100) in preparation for nuclear staining. The well plates were stained for 45 minutes at RT in the dark using Hoechest 33342 nuclear stain at 0.5 ug.ml (Stock of 10 mg/ml, Invitrogen, CA, Cat #H3570). The nuclear stain was removed by aspiration and the cells were washed with wash buffer. A Cellomics Array Scan Vti plate reader was used to acquire the DNA ploidy data of the cells using Cell Cycle bioapplication. Numbers for each of “valid cell count/well”, “% of 4N cells” and “% of >4Ncells” were calculated with the assistance of an Activity Base 5.1ca software and dose curves were generated using an XLFit software. With XLFit, final EC50 IP and EC50 transit values, as well as the Max and Min, were calculated for each curve.

Clc1ccc(-c2nnc(Nc3ccc(Sc4ccnc5cc[nH]c45)cc3)c3ccccc23)cc1 [compound 463]
EC50 (Homo sapiens, HeLa, HeLa cells): 0.01 µM

Cc1noc(-c2cc3nccc(Sc4ccc(Nc5nnc(-c6ccc(Cl)cc6)c6ccccc56)cc4)c3s2)n1 [compound 323]
EC50 (Homo sapiens, HeLa, HeLa cells): 0.131 µM

CCc1cc(-c2ccc(C)cc2)nnc1Nc1ccc(Sc2ccnc3cccnc23)cc1 [compound 358]
EC50 (Homo sapiens, HeLa, HeLa cells): 0.035 µM

Clc1ccc(-c2nnc(Nc3ccc(Sc4ccnc5ccoc45)cc3)c3ccccc23)nc1 [Example 391, 4-(5-Chloropyridin-2-yl)-N-(4-(furo[3,2-b]pyridin-7-ylthio)phenyl)phthalazin-1-amine]
EC50 (Homo sapiens, HeLa, HeLa cells): 0.032 µM

COCCOCCn1c(=O)ccc2nccc(Sc3ccc(Nc4nnc(-c5ccc(Cl)cc5)c5ccccc45)cc3)c21 [compound 476]
EC50 (Homo sapiens, HeLa, HeLa cells): 0.14 µM

COc1cnc2c(Oc3ccc(Nc4nnc(-c5ccc(Cl)s5)c5ccccc45)cc3)ccnc2c1 [compound 140, 4-(5-chloro-2-thienyl)-N-(4-((7-(methyloxy)-1,5-naphthyridin-4-yl)oxy)phenyl)-1-phthalazinamine]
EC50 (Homo sapiens, HeLa): 0.022 µM

c1ccc(-c2nnc(Nc3ccc(Sc4ccnc5cccnc45)cc3)c3ccccc23)cc1 [compound 285]
EC50 (HeLa cells): 0.009 µM

COCCOc1cc(-c2nnc(Nc3ccc(Sc4ccnc5cc(OC)cnc45)cc3)c3ccccc23)ccc1Cl [compound 450]
EC50 (Homo sapiens, HeLa, HeLa cells): 0.008 µM

COc1ccc(-c2nnc(Nc3ccc(Sc4ccnc5ccoc45)cc3)c3ccccc23)cn1 [compound 485]
EC50 (Homo sapiens, HeLa, HeLa cells): 0.069 µM

Cc1csc(-c2nnc(Nc3ccc(Oc4ccnc5cccnc45)cc3)c3ccccc23)c1 [compound 447]
EC50 (Homo sapiens, HeLa, HeLa cells): 0.012 µM

CCc1ccc(-c2nnc(Nc3ccc(Oc4ccnc5cc(OC)cnc45)cc3)c3ccccc23)cc1 [compound 221]
EC50 (Homo sapiens, HeLa, HeLa cells): 0.015 µM

COc1cnc2c(Oc3ccc(Nc4nnc(-c5ccnc(Cl)c5)c5ccccc45)cc3)ccnc2c1 [compound 283]
EC50 (Homo sapiens, HeLa, HeLa cells): 0.343 µM

CNC(=O)c1cc(Oc2ccc(Nc3nnc(-c4ccc(Cl)cc4)c4ccccc34)cc2)ccn1 [compound 361]
EC50 (Homo sapiens, HeLa, HeLa cells): 0.22 µM

CCc1cc(-c2ccc(C)cc2)nnc1Nc1ccc(Nc2ccnc3cc(C#N)ccc23)cc1 [compound 596]
EC50 (Homo sapiens, HeLa, HeLa cells): 0.084 µM

COc1cnc2c(Sc3ccc(Nc4nnc(OCC(F)(F)F)c5ccccc45)cc3)ccnc2c1 [compound 513]
EC50 (Homo sapiens, HeLa, HeLa cells): 0.059 µM

COc1cc2nccc(Oc3ccc(Nc4nnc(-c5ccc(C(C)(C)C)cc5)c5ccccc45)cc3)c2cc1OC [compound 106]
EC50 (Homo sapiens, HeLa): 0.033 µM

COc1cnc2c(Sc3ccc(Nc4nnc(N5CCN6CCCC[C@@H]6C5)c5ccccc45)cc3)ccnc2c1 [compound 580]
EC50 (Homo sapiens, HeLa, HeLa cells): 0.005 µM

COc1cnc2c(Oc3ccc(Nc4nnc(-c5cc(C)c(C)s5)c5ccccc45)cc3)ccnc2c1 [compound 260]
EC50 (Homo sapiens, HeLa, HeLa cells): 0.002 µM

COc1cnc2c(Sc3ccc(Nc4nnc(N5CCC(N6CCCC6)CC5)c5ccccc45)cc3)ccnc2c1 [compound 538]
EC50 (Homo sapiens, HeLa, HeLa cells): 0.178 µM

COC1CCN(c2nnc(Nc3ccc(Sc4ccnc5cc(C#N)ccc45)cc3)c3ccccc23)CC1 [compound 534]
EC50 (Homo sapiens, HeLa, HeLa cells): 0.006 µM

COc1cnc2c(Sc3ccc(Nc4nnc(N5CCN6C[C@H](F)C[C@H]6C5)c5ccccc45)cc3)ccnc2c1 [compound 600]
EC50 (Homo sapiens, HeLa, HeLa cells): 0.007 µM

Cc1csc(-c2nnc(Nc3ccc(Sc4ccnc5ccc(OC(F)(F)F)cc45)cc3)c3ccccc23)c1 [compound 572]
EC50 (Homo sapiens, HeLa, HeLa cells): 0.055 µM

Cc1ccc(-c2nnc(Nc3ccc(Oc4ccnc5cc(C#N)ccc45)cc3)c3ccccc23)nc1 [compound 122]
EC50 (Homo sapiens, HeLa): 0.053 µM

COc1cnc2c(Sc3ccc(Nc4nnc(N5CCN(C)CC5)c5ccccc45)cc3)ccnc2c1 [compound 503]
EC50 (Homo sapiens, HeLa, HeLa cells): 0.014 µM

COc1ccc2c(Cc3ccc(Nc4nnc(-c5ccccc5)c5ccccc45)cc3)ccnc2c1 [compound 319]
EC50 (Homo sapiens, HeLa, HeLa cells): 0.028 µM

COc1cnc2c(Oc3ccc(Nc4nnc(N5CCN6CCCC6C5)c5ccccc45)cc3)ccnc2c1 (centres unmarked) [compound 92]
EC50 (Homo sapiens, HeLa): 0.054 µM

COc1cnc2c(Oc3ccc(Nc4nnc(-c5ccc(C)c(N)c5)c5ccccc45)cc3)ccnc2c1 [compound 209]
EC50 (Homo sapiens, HeLa, HeLa cells): 0.004 µM

COc1cnc2c(Oc3ccc(Nc4nnc(-c5cc6ccccc6n5C)c5ccccc45)cc3)ccnc2c1 [compound 143, 4-(1-methyl-1H-indol-2-yl)-N-(4-((7-(methyloxy)-1,5-naphthyridin-4-yl)oxy)phenyl)-1-phthalazinamine]
EC50 (Homo sapiens, HeLa): 0.094 µM

Nc1ccc2nccc(Sc3ccc(Nc4nnc(-c5ccccc5)c5ccccc45)cc3)c2c1 [Example 399, N-(4-(6-Aminoquinolin-4-ylthio)phenyl)-4-phenylphthalazin-1-amine]
EC50 (Homo sapiens, HeLa, HeLa cells): 0.019 µM

COCc1cc(-c2ccccc2)nnc1Nc1ccc(Oc2ccnc3cc(OC)cnc23)cc1 [compound 593]
EC50 (Homo sapiens, HeLa, HeLa cells): > 1.2 µM

CCc1cc(N2CC[C@H]3CCCC[C@@H]3C2)nnc1Nc1ccc(Oc2ccnc3cc(OC)cnc23)cc1 [compound 320]
EC50 (Homo sapiens, HeLa, HeLa cells): 0.12 µM

COc1cnc2c(Oc3ccc(Nc4nnc(-c5ccc(Cl)cc5)c5c4CCC5)cc3)ccnc2c1 [compound 411]
EC50 (Homo sapiens, HeLa, HeLa cells): > 1.2 µM

COc1cnc2c(Oc3ccc(Nc4nnc(-c5ncco5)c5ccccc45)cc3)ccnc2c1 [compound 200]
EC50 (Homo sapiens, HeLa, HeLa cells): 0.314 µM

COc1cnc2c(Oc3c(F)cc(Nc4nnc(-c5ccc(Cl)cc5)c5ccccc45)cc3F)ccnc2c1 [compound 454]
EC50 (Homo sapiens, HeLa, HeLa cells): 0.008 µM

COc1cnc2c(Oc3ccc(Nc4nnc(-c5ccc(SC)cc5)c5ccccc45)cc3)ccnc2c1 [compound 237]
EC50 (Homo sapiens, HeLa, HeLa cells): 0.03 µM

COc1cnc2c(Oc3ccc(Nc4nnc(-c5cccc(C(=O)N(C)C)c5)c5ccccc45)cc3)ccnc2c1 [compound 226]
EC50 (Homo sapiens, HeLa, HeLa cells): > 1.2 µM

COc1cnc2c(Oc3cnc(Nc4nnc(-c5ccccc5)c5ccccc45)nc3)ccnc2c1 [compound 84]
EC50 (Homo sapiens, HeLa): 0.485 µM

COc1cnc2c(Sc3ccc(Nc4nnc(N5CC(C)CC(C)C5)c5ccccc45)cc3)ccnc2c1 (centres unmarked) [compound 556]
EC50 (Homo sapiens, HeLa, HeLa cells): 0.026 µM

COc1ccc2nccc(Sc3ccc(Nc4nnc(-c5cccc(C)n5)c5ccccc45)cc3)c2n1 [compound 419]
EC50 (Homo sapiens, HeLa, HeLa cells): 0.124 µM

COc1cnc2c(Oc3ccc(Nc4nnc(-c5ccncc5OC)c5ccccc45)cc3)ccnc2c1 [compound 130]
EC50 (Homo sapiens, HeLa): > 1.2 µM

COc1cnc2c(Oc3ccc(Nc4nnc(-c5ccc(OC)c(F)c5)c5ccccc45)cc3)ccnc2c1 [compound 227]
EC50 (Homo sapiens, HeLa, HeLa cells): 0.061 µM

COc1cnc2c(Sc3ccc(Nc4nnc(NCCc5ccccn5)c5ccccc45)cc3)ccnc2c1 [compound 537]
EC50 (Homo sapiens, HeLa, HeLa cells): 0.002 µM

Cn1cncc1-c1cc2nccc(Oc3ccc(Nc4nnc(-c5ccc(Cl)cc5)c5ccccc45)cn3)c2s1 [compound 267]
EC50 (Homo sapiens, HeLa, HeLa cells): 0.013 µM

Cn1cc(-c2ccc3nccc(Oc4ccc(Nc5nnc(-c6ccccc6)c6ccccc56)cc4)c3c2)cn1 [Example 45, N-(4-(6-(1-Methyl-1H-pyrazol-4-yl)quinolin-4-yloxy)phenyl)-4-phenylphthalazin-1-amine]
EC50 (Homo sapiens, HeLa, HeLa cells): 0.056 µM

Cc1cccc(-c2nnc(Nc3ccc(Sc4ccnc5cccnc45)cc3)c3ccccc23)n1 [compound 421]
EC50 (Homo sapiens, HeLa, HeLa cells): 0.051 µM

COc1cnc2c(Oc3ccc(Nc4nnc(-c5ccc(OC)nc5)c5ccccc45)cc3)ccnc2c1 [compound 158]
EC50 (Homo sapiens, HeLa): 0.075 µM

COc1ccc2c(Oc3ccc(Nc4nnc(-c5ccc(C(F)(F)F)cc5)c5ccccc45)cc3)c(F)cnc2c1 [Example 39, N-(4-(3-fluoro-7-methoxyvquinolin-4-yloxy)phenyl)-4-(4-(trifluoromethyl)phenyl) phthalazin-1-amine]
EC50 (Homo sapiens, HeLa, HeLa cells): ≥ 1.2 µM

Clc1ccc(-c2nnc(Nc3ccc(Cn4cnc5ccccc54)cc3)c3ccccc23)cc1 [compound 341]
EC50 (Homo sapiens, HeLa, HeLa cells): ≥ 1.2 µM

COc1cnc2c(Sc3ccc(Nc4nnc(N5CCN(S(C)(=O)=O)CC5)c5ccccc45)cc3)ccnc2c1 [compound 605]
EC50 (Homo sapiens, HeLa, HeLa cells): 0.018 µM

CC(=O)Nc1ccc2nccc(Oc3ccc(Nc4nnc(-c5ccccc5)c5ccccc45)cc3)c2c1 [Example 43, N-(4-(4-(4-Phenylphthalazin-1-ylamino)phenoxy)quinolin-6-yl)acetamide]
EC50 (Homo sapiens, HeLa, HeLa cells): 0.025 µM

N#Cc1cc2nccc(Sc3ccc(Nc4nnc(-c5ccc(Cl)cc5)c5ccccc45)cc3)c2s1 [compound 351]
EC50 (Homo sapiens, HeLa, HeLa cells): 0.053 µM

Cc1csc(-c2nnc(Nc3ccc(Sc4ccnc5cc(C(=O)N6CCOCC6)sc45)cc3)c3ccccc23)c1 [compound 312]
EC50 (Homo sapiens, HeLa, HeLa cells): 0.032 µM

COc1ccc2c(Sc3ccc(Nc4nnc(-c5ccc(Cl)cc5)c5ccccc45)cc3)ccnc2c1 [compound 334]
EC50 (Homo sapiens, HeLa, HeLa cells): 0.018 µM

FC(F)(F)Oc1ccc2nccc(Oc3ccc(Nc4nnc(-c5ccc(Cl)cc5)c5ccccc45)cc3)c2c1 [compound 574]
EC50 (Homo sapiens, HeLa, HeLa cells): 0.119 µM

c1ccc(-c2nnc(Nc3ccc(Oc4ccnc5ccc(N6CCOCC6)cc45)cc3)c3ccccc23)cc1 [compound 264]
EC50 (Homo sapiens, HeLa, HeLa cells): 0.387 µM

COc1ccc(-c2nnc(Nc3ccc(Sc4ccnc5cc(OC)cnc45)cc3)c3ccccc23)cc1 [compound 357]
EC50 (Homo sapiens, HeLa, HeLa cells): 0.007 µM

COc1cnc2c(Oc3ccc(Nc4nnc(-c5ccc(C)cc5)c5ccccc45)cc3)ccnc2c1 [compound 81]
EC50 (Homo sapiens, HeLa): 0.008 µM

N#Cc1ccc2c(Oc3ccc(Nc4nnc(-c5cccc(O)c5)c5ccccc45)cc3)ccnc2c1 [compound 93]
EC50 (Homo sapiens, HeLa): 0.025 µM

COc1cnc2c(Oc3ccc(Nc4nnc(C5CC5)c5ccccc45)cc3)ccnc2c1 [compound 543]
EC50 (Homo sapiens, HeLa, HeLa cells): 0.281 µM
